Data set [1] relates to Candida albicans_ATCC10231. Nature of the data set: microbe, parasite or virus in culture. The method, then: (§1) To achieve a final cell concentration of 2 × 10^6 CFU/mL, mid-log phase cultures were diluted with a Yeast and Mold (YM) broth and then put to 96-well plates with two-fold serially diluted peptides (from 0.1 to 89.8 µM) in a 1:1 ratio.
The next data set relates to Candida auris_55. Description: microbe, parasite or virus in culture. The method, then: as §1
A further data set concerns Candida auris_84. Description: microbe, parasite or virus in culture. Here is the method:
as §1

Data set [2] has as its system Cryptococcus neoformans_ATCC32045. Nature of the data set: microbe, parasite or virus in culture. Here is the method: as §1
The subject of data set [3] is Cryptococcus neoformans_BNCC225501. Description: microbe, parasite or virus in culture. Here is the method: as §1
A further data set deals with chymotrypsin. To be noted: peptide 1 mg/mL, peptide:enzyme 250:1, 5 mM CaCl2, 50 mM Tris-HCl pH 7.4, 37 °C, time points 0 to 12 h, SDS-PAGE bands. Here is the method:
(§2) The mixture was heated for 10 min at 95 °C to halt enzymatic reaction. A solution of 20 µL of the SDS-PAGE loading buffer (5×) was added to 80 µL of the sample, mixed by vortexing and heated for 5 min at 95 °C. SDS-PAGE analysis was performed using Omni-PAGE™Precast HEPES-Tris Gels. LL37 and colistin antibiotics were used as controls.

For the next data set, the system named is trypsin. The settings on record: peptide 1 mg/mL, peptide:enzyme 250:1, 5 mM CaCl2, 50 mM Tris-HCl pH 7.4, 37 °C, time points 0 to 12 h, SDS-PAGE bands. The method, then: as §2
Where [4] appears, read: broth microdilution, YM broth, 2 × 10^6 CFU/mL, 24 h at 37 °C, lowest concentration that fully inhibited growth.

This note sets out measurements from publication PMC11728142, “A Tachyplesin Antimicrobial Peptide from Theraphosidae Spiders with Potent Antifungal Activity Against Cryptococcus neoformans” (Microorganisms, 2024).

Structures are written as SMILES. Converted amounts (≈) assume the structure as drawn. Residues, ends and D or L forms follow the SMILES beside them.

`C[C@@H]1[C@H](O)[C@@H](C)/C=C/C=C/C=C/C=C/C=C/C=C/C=C/[C@H](O[C@@H]2O[C@H](C)[C@@H](O)[C@H](N)[C@@H]2O)C[C@@H]2O[C@](O)(C[C@@H](O)C[C@@H](O)[C@H](O)CC[C@@H](O)C[C@@H](O)CC(=O)O[C@H]1C)C[C@H](O)[C@H]2C(=O)O` [Amphotericin B, amphotericin B, reference compound]: the MIC was no more than 0.4 µM in data set [1] (Candida, 24 h); 1.7 µM (≈ 1.57 µg/mL) with Candida auris_55 (Candida, 24 h); 0.8 µM (≈ 0.739 µg/mL) against Candida auris_84 (Candida, 24 h); 3.4 µM (≈ 3.14 µg/mL) in data set [2] (Cryptococcus, 24 h); 1.7 µM (≈ 1.57 µg/mL) in data set [3] (Cryptococcus, 24 h).

In the case of `CC(C)[C@H](NC(=O)[C@H](CCCCN)NC(=O)[C@H](Cc1ccccc1)NC(=O)[C@H](CS)NC(=O)[C@@H](N)CCC(N)=O)C(=O)N[C@@H](CS)C(=O)N[C@@H](Cc1ccccc1)C(=O)N[C@@H](CCCNC(=N)N)C(=O)N[C@@H](CCCCN)C(=O)N[C@@H](CCCNC(=N)N)C(=O)N[C@@H](CS)C(=O)N[C@@H](Cc1ccccc1)C(=O)N[C@H](C(=O)N[C@@H](CCCCN)C(=O)N[C@@H](CS)C(=O)N[C@@H](CO)C(=O)N[C@@H](CCCNC(=N)N)C(=O)N[C@@H](CO)C(=O)O)[C@@H](C)O` [QS18red] (H-QCFKVCFRKRCFTKCSRS-OH), the MIC in data set [1] (setting [4]) is reported as greater than 89.8 µM; in the data set with Candida auris_55 (setting [4]) it was greater than 89.8 µM; against Candida auris_84 (setting [4]) it was 44.9 µM (≈ 100 µg/mL); in data set [2] (setting [4]) it was no less than 89.8 µM; in data set [3] (setting [4]), 89.8 µM (≈ 200 µg/mL). For the same molecule, the “proteolytic stability with chymotrypsin” value in the data set with chymotrypsin is recorded as “faint initial band that disappeared after 15 min”. Moreover, the “proteolytic stability with trypsin” value with trypsin is “no bands observed even at t = 0 min”.
